Measured values: ChEMBL document CHEMBL1143187, “Synthesis of and evaluation of lipid A modification by 4-substituted 4-deoxy arabinose analogs as potential inhibitors of bacterial polymyxin resistance” (Bioorg Med Chem Lett, 2008)
Active and inactive are the calls of the source. The calls are words filed in the database; no cut-off is given here.

Columns and labels:
[1] = molecular target: Undecaprenyl phosphate-alpha-4-amino-4-deoxy-L-arabinose arabinosyl transferase (Salmonella typhimurium (strain LT2 / SGSC1412 / ATCC 700720)) (UniProt O52327); assay: Inhibition of PmrK/ArnT in Salmonella Typhimurium JSG435 membranes assessed as effect on transfer of aminoarabinose tp lipid A; conditions: Salmonella enterica subsp. enterica serovar Typhimurium
Escherichia coli [2] = assay: Inhibition of Escherichia coli ArnA upto 100 uM
Escherichia coli [3] = assay: Inhibition of Escherichia coli ArnB upto 100 uM

SMILES	Activity [1]	Activity (Escherichia coli [2])	Activity (Escherichia coli [3])
CC(=O)OC1OC[C@H](N=[N+]=[N-])[C@H](OC(C)=O)[C@H]1OC(C)=O (stereo partly drawn)	Active	Active	Active
CCCCCCCCN.CCOP(=O)(Cc1ccccc1)N[C@H]1CO[C@H](OP(=O)(O)OP(=O)(O)OC[C@H]2O[C@@H](n3ccc(=O)[nH]c3=O)[C@H](O)[C@@H]2O)[C@H](OC(C)=O)[C@H]1OC(C)=O (stereo partly drawn)		Active	Active
CC(=O)O[C@@H]1[C@@H](OC(C)=O)[C@@H](OP(=O)(O)OP(=O)(O)OC[C@H]2O[C@@H](n3ccc(=O)[nH]c3=O)[C@H](O)[C@@H]2O)OC[C@@H]1N=[N+]=[N-].CCCCCCCCCN		Active	Active
COP(=O)(N[C@H]1CO[C@H](OP(=O)(OCc2ccccc2)OCc2ccccc2)[C@H](OC(C)=O)[C@H]1OC(C)=O)OC		Active	Active
CC(=O)O[C@@H]1[C@@H](OC(C)=O)[C@@H](OP(=O)(O)O)OC[C@@H]1N=[N+]=[N-]		Active	Active
COP(=O)(N[C@H]1CO[C@H](OP(=O)(O)O)[C@H](OC(C)=O)[C@H]1OC(C)=O)OC		Active	Active
